Ends that are not written are not given here.

The record followed here is patent US6593455B2, “Tripeptide amides that block viral infectivity and methods of use thereof” (Tripep AB, priority 2001, dated 2003).

This experiment deals with HIV-1 SF-2. The experiment is described as follows: HIV-1 infectivity assay in H9 cells (p24 production and RT activity in culture supernatants). In kind it is cell-based. The following applies: approximately 100 μm peptide. From the text: The tripeptide amides made according to EXAMPLE 1 were used in several HIV-1 infectivity assays to determine the ability of said tripeptide amides to inhibit HIV replication and/or infection. The efficiency of HIV-1 replication and status of HIV-1 infection was monitored by reverse transcriptase activity and the concentration of p24 protein in the cell supernatant. (See e.g., U.S. Pat. Nos. 5,627,035 and 6,258,932B1, herein expressly incorporated by reference in their entireties, which describe similar HIV infectivity assays and others that can be used to analyze the tripeptide amides described herein). EXAMPLE 2 describes an approach that was used to screen several tripeptide amides for their ability to inhibit HIV-1 infection.
In this example, the methods that were used to analyze the ability of various tripeptide amides to inhibit HIV-1 replication are disclosed. Approximately 10^5 of H9 cells were infected with HIV-1 SF-2 at 25 TCID50 to test the inhibitory effect of the following synthesized tripeptides: Ser-Ile-Leu-NH2, Ile-Leu-Asp-NH2, Gly-Pro-Lys-NH2, Pro-Lys-Glu-NH2, Lys-Glu-Pro-NH2, Glu-Pro-Phe-NH2, Arg-Asp-Tyr-NH2, Asp-Tyr-Val-NH2, Tyr-Lys-Thr-NH2, Arg-Ala-Glu-NH2, Ala-Glu-Gln-NH2, Glu-Gln-Ala-NH2, Val-Lys-Asn-NH2, Thr-Glu-Thr-NH2, Leu-Leu-Val-NH2, Val-Gln-Asn-NH2, Gln-Asn-Ala,-NH2, Asn-Ala-Asn-NH2, Asn-Pro-Asp-NH2, Pro-Asp-Cys-NH2, Cys-Lys-Thr-NH2, Thr-Ile-Leu-NH2, Pro-Gly-Ala-NH2, Thr-Leu-Glu-NH2, Thr-Ala-Cys-NH2, Ala-Cys-Gln-NH2, Gln-Gly-Val-NH2, Pro-Gly-His-NH2, and Arg-Val-Leu-NH2. Accordingly, the H9 cells were resuspended with or without the different peptides (approximately 100 μm) in 1 ml of RPMI 1640 medium supplemented with 10% (v/v) heat-inactivated fetal bovine serum (FBS), penicillin (100 μ/ml), and streptomycin (100 μ/ml), all available through GIBCO, and Polybrene (2 μg/ml), available through Sigma. Thereafter, viruses were added at 25 TCID50 in a volume of 20-30 μl. Cells were incubated with virus at 37° C. for 1 hr then pelleted at 170×g for 7 minutes. The cells were then washed three times in RPMI medium with or without peptides at room temperature and pelleted at 170×g for 7 minutes, as above. After the final wash, the cells were resuspended in RPMI culture medium containing the peptides in a 24-well plate (Costar corporation) and were kept at 37° C. in 5% CO2 with humidity.
Culture supernatants were collected and analyzed when the medium was changed at 4, 7, 10, and 14 days post infection. To monitor the replication of virus, reverse transcriptase (RT) activity in the supernatants was assayed using a commercially available Lenti-RT activity kit. (Cavidi Tech, Uppsala, Sweden). The amount of RT was determined with the aid of a regression line of standards.
The presence of p24 in the supernatants was determined using a commercially available HIV p24 antigen detection kit (ELISA kit from Abbott Laboratories, North Chicago, U.S.A.). In some cases, serial dilutions of the supernatants were made so as to more accurately detect p24 concentration.
Ala-Cys-Gln-NH2: the “inhibition of HIV-1 infection” value was “effectively inhibit HIV-1 infection”. Regarding Ala-Glu-Gln-NH2, the “inhibition of HIV-1 infection” value was “effectively inhibit HIV-1 infection”. In the case of Arg-Ala-Glu-NH2, the “inhibition of HIV-1 infection” value is “effectively inhibit HIV-1 infection”. As for Arg-Asp-Tyr-NH2, the entry is “effectively inhibit HIV-1 infection”; as for Arg-Val-Leu-NH2, “effectively inhibit HIV-1 infection”; as for Asn-Ala-Asn-NH2, “effectively inhibit HIV-1 infection”. For Asn-Pro-Asp-NH2, the “inhibition of HIV-1 infection” value is reported as “effectively inhibit HIV-1 infection”. Regarding Asp-Tyr-Val-NH2, the “inhibition of HIV-1 infection” value is “effectively inhibit HIV-1 infection”. For the substance Cys-Lys-Thr-NH2, the “inhibition of HIV-1 infection” value is “effectively inhibit HIV-1 infection”.

For the substance Gln-Asn-Ala-NH2, the “inhibition of HIV-1 infection” value is given as “effectively inhibit HIV-1 infection”.

With Gln-Gly-Val-NH2, the “inhibition of HIV-1 infection” value was “effectively inhibit HIV-1 infection”. The entry for Glu-Gln-Ala-NH2 is “effectively inhibit HIV-1 infection”; for Glu-Pro-Phe-NH2 it is “effectively inhibit HIV-1 infection”; for Gly-Pro-Lys-NH2 it is “effectively inhibit HIV-1 infection”. The entry for Ile-Leu-Asp-NH2 is “effectively inhibit HIV-1 infection”.

Take Leu-Leu-Val-NH2: the “inhibition of HIV-1 infection” value is “effectively inhibit HIV-1 infection”. For the substance Lys-Glu-Pro-NH2, the “inhibition of HIV-1 infection” value is “effectively inhibit HIV-1 infection”. In the case of Pro-Asp-Cys-NH2, the “inhibition of HIV-1 infection” value is listed as “effectively inhibit HIV-1 infection”. In the case of Pro-Gly-Ala-NH2, the “inhibition of HIV-1 infection” value is “effectively inhibit HIV-1 infection”.

In the case of Pro-Gly-His-NH2, the “inhibition of HIV-1 infection” value is reported as “effectively inhibit HIV-1 infection”. On to Pro-Lys-Glu-NH2, for which the “inhibition of HIV-1 infection” value is “effectively inhibit HIV-1 infection”. In the case of Ser-Ile-Leu-NH2, the “inhibition of HIV-1 infection” value is given as “effectively inhibit HIV-1 infection”. On to Thr-Ala-Cys-NH2, for which the “inhibition of HIV-1 infection” value is “effectively inhibit HIV-1 infection”. Take Thr-Glu-Thr-NH2: the “inhibition of HIV-1 infection” value is given as “effectively inhibit HIV-1 infection”. On to Thr-Ile-Leu-NH2, for which the “inhibition of HIV-1 infection” value is listed as “effectively inhibit HIV-1 infection”. For the substance Thr-Leu-Glu-NH2, the “inhibition of HIV-1 infection” value was “effectively inhibit HIV-1 infection”. Turning to Tyr-Lys-Thr-NH2, the “inhibition of HIV-1 infection” value was “effectively inhibit HIV-1 infection”.

As to Val-Gln-Asn-NH2, the “inhibition of HIV-1 infection” value is “effectively inhibit HIV-1 infection”. As for Val-Lys-Asn-NH2, the “inhibition of HIV-1 infection” value is “effectively inhibit HIV-1 infection”.
